Data reported in article PMC6770517, “Insight into the Antifungal Mechanism of Action of Human RNase N-terminus Derived Peptides” (International Journal of Molecular Sciences, 2019).
Values after ≈ are worked out from the molar mass of the structure shown. Where no end group is shown, it is not given here.

Tests used:
[1] = system: C. albicans cytoplasmic membrane; assay: Cell membrane permeabilization (Sytox Green uptake); assay type: cell-based, Candida albicans (ATCC 90028); conditions: mean ± SEM; for Membrane Permeabilization Max. Perm.: Sytox Green fluorescence, PBS, 50 min; for Membrane Permeabilization Perm.: maximum at final incubation time (50 min), referred to positive control 10 % Triton X-100, Sytox Green
Method: Membrane permeabilization was evaluated by using the Sytox® Green uptake assay. Sytox® Green is a cationic cyanine dye which is unable to cross the membrane. When cells’ plasma membrane integrity is compromised, the dye enters into the cell, binding to DNA and triggering a large increase of the fluorescence signal. For Sytox® Green assays, C. albicans cells were grown to mid-exponential growth phase at 30 °C and then centrifuged, washed, and resuspended in PBS. Cell suspensions in PBS (~2 × 10^6 cells/mL) were incubated with 1 μM Sytox® Green for 15 min in the dark prior to the influx assay. At 2 to 4 min after initiating data collection, proteins at 1 and 5 μM final concentration were added to the cell suspension, and the increase in Sytox® Green fluorescence was measured (excitation wavelength at 485 nm and emission at 520 nm) for 50 min in a Cary Eclipse spectrofluorimeter. Fungal cell lysis with 10% Triton X-100 was taken as the maximum fluorescence reference value.

C. albicans [2] = assay: Cell survival assay (Live/Dead kit); assay type: cell-based, Candida albicans (ATCC 90028); conditions: survival percentage at final incubation time (120 min), mean ± SEM
Method: C. albicans viability assay was performed using the Live⁄Dead® microbial viability kit as previously described. Candida strain was grown at 30 °C to ~5 × 10^6 cells/mL, centrifuged at 5000× g for 5 min and resuspended in a 0.85% NaCl solution, in accordance with the manufacturer instructions. C. albicans cell culture was stained using a SYTO®9/propidium iodide 1:1 mixture. SYTO9/propidium iodide staining allowed us to monitor both the candidal viability in planktonic cell cultures and within the biofilm, as the SYTO9 dye is able to permeate the cell membrane and stain the nucleic acid of viable cells; whereas, when the cell membrane is damaged, propidium iodide can diffuse into the cell and displace SYTO9. The method allows the labelling of intact viable cells and membrane compromised cells, which are labelled in green and red respectively, referred to as live and dead cells. The viability kinetics were monitored using a Cary Eclipse Spectrofluorimeter (Varian Inc., Palo Alto, CA, USA). Cell viability profiles were registered after adding from 1 to 5 µM of final peptide concentration. To calculate the cell viability, the fluorescence in the range of 510–540 nm and 620–650 nm were integrated to obtain the SYTO®9 (live cell) and the propidium iodide (dead cell) signals respectively. Then, the percentage of live bacteria was represented as a function of time.

[3] = system: C. albicans cytoplasmic membrane; assay: Cell membrane depolarization assay (DiSC3); assay type: cell-based, Candida albicans (ATCC 90028); conditions: mean ± SEM; for Membrane Depolarization ED50: DiSC3 probe, peptide 0.1 to 5 µM, 50 min, 20 °C, Hepes-KOH pH 7.2; for Membrane Depolarization Depolmax: maximum fluorescence value at final incubation time with 2 µM peptide, DiSC3
Method: Membrane depolarization was assayed by monitoring the DiSC3 fluorescence intensity change in response to changes in transmembrane potential as described previously. C. albicans cells were grown at 30 °C to the mid-exponential (OD592~0.4) and resuspended in 5 mM Hepes-KOH, 20 mM glucose and 100 mM KCl at pH 7.2. DiSC3 was added to a final concentration of 0.4 µM. Changes in the fluorescence for alteration of the cell plasma membrane potential were continuously monitored at 20 °C at an excitation wavelength of 620 nm and an emission wavelength of 670 nm. When the dye uptake was maximal, as indicated by a stable reduction in the fluorescence as a result of quenching of the accumulated dye in the membrane interior, protein in 5 mM Hepes-KOH buffer at pH 7.2 was added at a final peptide concentration from 1 to 5 μM and incubated for 50 min, to calculate the ED50 concentration. Maximum depolarization was calculated when the fluorescence signal was fully stabilized, and the depolarization percentage was calculated taking Triton X-100 at 10% as a maximum reference value. The time required to reach a stabilized maximum fluorescence reading was recorded for each condition, and the time required to achieve half of total membrane depolarization was estimated from the nonlinear regression curve. All conditions were assayed in duplicate.

C. albicans [4] = assay: Minimum fungicidal concentration by CFU counting; assay type: cell-based, Candida albicans (ATCC 90028); conditions: for MFC100, PBS / MFC100, Sabouraud Broth: C. albicans ~2 × 10^5 cells/mL, CFU counting, peptides 20 to 0.1 µM, mean ± SEM, two independent experiments in triplicate; for MFC100, PBS: 4 h at 30 °C in PBS; for MFC100, Sabouraud Broth: 4 h at 30 °C in Sabouraud nutrient broth
Method: C. albicans was cultured overnight in Sabouraud Dextrose broth at 30 °C, sub-cultured the next day in fresh media and grown to an optical density of 0.4 at 592 nm (mid log-phase). Cells were washed twice and diluted to ~2 × 10^5 cells/mL. Peptides serially diluted were added to the cells from 20 to 0.1 µM final concentration. C. albicans was incubated at 30 °C during 4h in Sabouraud nutrient broth or PBS. Following, the samples were plated onto Sabouraud Petri dishes and incubated at 30 °C overnight. Antifungal activity was expressed as the MFC, defined as the lowest peptide concentration required for more than 99% of microorganism killing. MFC of each peptide was determined from two independent experiments performed in triplicate for each concentration.

C. albicans cells = assay: Minimal agglutination activity (MAC); assay type: cell-based, Candida albicans (ATCC 90028); conditions: for MAC (minimal agglutination concentration): C. albicans in PBS, 1 h at 30 °C, peptides 0.01 to 20 μM, visual inspection, mean ± SEM, three replicates of two independent experiments
Method: C. albicans cells were grown at 30 °C to an OD592 of 1.0, diluted 10 times, centrifuged at 5000× g for 2 min, and resuspended in 1× PBS. An aliquot of 100 μL of the cellular suspension was treated with increasing peptide concentrations (from 0.01 to 20 μM) and incubated at 30 °C for 1 h. The aggregation behavior was observed by visual inspection, and the agglutinating activity is expressed as the minimum agglutinating concentration of the sample tested, as previously described. Images were taken using a 50× stereoscope microscope.

in vitro = assay type: cell-based; conditions: human
Method: The peptide cytoxicity was evaluated using the human monocytic THP1 cell line. The assay was performed in 96-well cell culture flat-bottom plates (Costar; Appleton Woods) in triplicate. THP-1 cultures were induced to macrophages by adding 2 ng/mL of colony-stimulating factor (R&D Systems, Germany). Peptides were serially diluted from 50 to 0.1 µM and added to 5 × 10^5 cells/mL. After 48 h of incubation, the cells were washed twice with 1× PBS, and fresh RPMI-1640 complete medium was added. Plates were then treated with 30 μL of a freshly prepared 0.01% resazurin solution and incubated overnight at 37 °C. The following day the change in color was observed and the fluorescence intensity was measured (λex560 nm, λem590 nm). The 50% growth inhibitory concentration (GIC50) was determined based on the resazurin fluorescence signal.

[5] = system: C. albicans planktonic cells; assay type: cell-based, Candida albicans (ATCC 90028); conditions: 4 h
Method: Cell viability of C. albicans was assayed using the BacTiter-Glo™ Microbial Cell Viability kit (Promega), which measures the number of viable cells, by ATP quantification. ATP, as an indicator of metabolically active cells, is indirectly measured by a coupled luminescence detection assay. The luminescent signal is proportional to the amount of ATP required for the conversion of luciferin into oxyluciferin in the presence of luciferase. An overnight culture of C. albicans was used to inoculate fresh Sabouraud liquid culture, and logarithmic phase culture was grown to an OD592 of 0.2. RNase derived N-terminal peptides were added to 0.1 mL of cell culture at a final concentration from 0.025 to 20 μM. The C. albicans viability was followed after 4 h of incubation at 30 °C. 50 µL of incubation culture were mixed with 50 µL of BacTiter-Glo^TM reagent in a microtiter plate following the manufacturer instructions and incubated at room temperature for 10 min. Luminiscence was read on a Victor3 plate reader (PerkinElmer, Waltham, MA, USA) with a 1-s integration time. IC50 values were calculated by fitting the data to a dose-response curve.

C. albicans [6] = conditions: as previously reported; cited from earlier work

QDGMYQRFLRQHVHPEETGGSDRYSNLMMQRRKMTLYHSKRFNTFIH-NH2 [RN4]
Membrane Permeabilization Max. Perm. [1]: 117 ± 2 AU | Membrane Permeabilization Perm. [1]: 38.7 ± 0.1% | Cell Survival (C. albicans [2]): 65 ± 10% | Membrane Depolarization ED50 [3]: 3580 ± 1600 nM | Membrane Depolarization Depolmax [3]: 76.2 ± 4.8 AU | MFC100, PBS (C. albicans [4]): 3.75 ± 0.20 µM | MFC100, Sabouraud Broth (C. albicans [4]): 4.00 ± 0.50 µM | MAC (minimal agglutination concentration) (C. albicans cells): 0.40 ± 0.10 µM | IC50 at 48 h (in vitro): > 50000 nM | IC50 [5]: 1800 ± 300 nM

QDNSRYTHFLTQHYDAKPQGRDDRYSESIMRRRGLTSPSKDINTFIH-NH2 [RN5]
Membrane Permeabilization Max. Perm. [1]: 66.5 ± 0.6 AU | Membrane Permeabilization Perm. [1]: 21.8 ± 0.4% | Cell Survival (C. albicans [2]): 39 ± 0.5% | Membrane Depolarization ED50 [3]: 1510 ± 100 nM | Membrane Depolarization Depolmax [3]: 39.1 ± 5.1 AU | MFC100, PBS (C. albicans [4]): >20 µM | MFC100, Sabouraud Broth (C. albicans [4]): >20 µM | MFC (C. albicans [4]; medium not specified): inactive | MAC (minimal agglutination concentration) (C. albicans cells): 1.80 ± 0.40 µM | IC50 at 48 h (in vitro): > 50000 nM | IC50 [5]: > 20000 nM

C[C@@H]1[C@H](O)[C@@H](C)/C=C/C=C/C=C/C=C/C=C/C=C/C=C/[C@H](O[C@@H]2O[C@H](C)[C@@H](O)[C@H](N)[C@@H]2O)C[C@@H]2O[C@](O)(C[C@@H](O)C[C@@H](O)[C@H](O)CC[C@@H](O)C[C@@H](O)CC(=O)O[C@H]1C)C[C@H](O)[C@H]2C(=O)O [amphotericin B]
MFC taken as internal reference (C. albicans [6]): 0.5 µM (≈ 0.462 µg/mL)

colistin
MFC taken as internal reference (C. albicans [6]): 0.25 µM

KPKDMTSSQWFKTQHVQPSPQASNSAMSIINKYTERSKDLNTFLH-NH2 [RN8]
IC50 at 48 h (in vitro): > 50000 nM | IC50 [5]: > 10000 nM

RPPQFTRAQWFAIQHISLNPPRSTIAMRAINNYRWRSKNQNTFLR-NH2 [RN3]
IC50 at 48 h (in vitro): > 50000 nM | IC50 [5]: 220 ± 50 nM

KESRAKKFQRQHMDSDSSPSSSSTYSNQMMRRRNMTQGRSKPVNTFVH-NH2 [RN1]
Membrane Permeabilization Max. Perm. [1]: 26.1 ± 0.4 AU | Membrane Permeabilization Perm. [1]: 8.3 ± 0.4% | Cell Survival (C. albicans [2]): 67 ± 1% | Membrane Depolarization ED50 [3]: 4630 ± 700 nM | Membrane Depolarization Depolmax [3]: 65.2 ± 4.6 AU | MFC100, PBS (C. albicans [4]): 3.75 ± 0.30 µM | MFC100, Sabouraud Broth (C. albicans [4]): 3.75 ± 0.50 µM | MAC (minimal agglutination concentration) (C. albicans cells): 1.80 ± 0.40 µM | IC50 at 48 h (in vitro): > 50000 nM | IC50 [5]: 2100 ± 200 nM

RPRGMTSSQWFRIQHMQPSPQASNSAMRNINRHTRRSRDLNTFLH-NH2 [RN7R]
IC50 at 48 h (in vitro): > 50000 nM | IC50 [5]: 1620 ± 320 nM

KPKGMTSSQWFKIQHMQPSPQASNSAMKNINKHTKRSKDLNTFLH-NH2 [RN7]
IC50 at 48 h (in vitro): > 50000 nM | IC50 [5]: 450 ± 100 nM

WPKRLTKAHWFEIQHIQPSPLQSNRAMSGINNYTQHSKHQNTFLH-NH2 [RN6]
IC50 at 48 h (in vitro): > 50000 nM | IC50 [5]: 1800 ± 200 nM

KPPQFTKAQWFAIQHISLNPPKSTIAMKAINNYKWKSKNQNTFLK-NH2 [RN3K]
IC50 at 48 h (in vitro): > 50000 nM | IC50 [5]: 2080 ± 270 nM

KPPQFTWAQWFETQHINMTSQQSTNAMQVINNYQRRSKNQNTFLL-NH2 [RN2]
IC50 at 48 h (in vitro): > 50000 nM | IC50 [5]: > 20000 nM

B1: hRNase7: human ribonuclease 7 of the RNaseA superfamily, parental protein of RN7 (protein, UniProt Q9H1E1 29-156, looked up)
Ribonuclease 7: KPKGMTSSQWFKIQHMQPSPQACNSAMKNINKHTKRCKDLNTFLHEPFSSVAATCQTPKIACKNGDKNCHQSHGAVSLTMCKLTSGKHPNCRYKEKRQNKSYVVACKPPQKKDSQQFHLVPVHLDRVL
agglutination of C. albicans by the parental hRNase (C. albicans cells; protein tested up to 20 μM): not
